# Assay: Hydrolysis of dilute aqueous insecticide solution (EPA OPPT 835.2130 Hydrolysis as a Function of pH and Temperature)
# Assay type: physicochemical
# Conditions: for Bifenthrin remaining: same solution plus 220ppm polymer particles (55% solids vinyl acetate-ethylene copolymer latex, Tg 10° C.)
# Procedure: In fact, we have made dilute aqueous solutions of Bifenthrin (0.0895 ppm at pH 11.0) in accordance with EPA Fate, Transport and Transformation Test Guidelines OPPT 835.2130 Hydrolysis as a Function of pH and Temperature. After 5 hours at 25° C. only 45% of the insecticide could be detected in the solution and after 15 hours only 12% remained.
smiles,measurement,setting,value
Cc1c(COC(=O)[C@@H]2[C@H](/C=C(\Cl)C(F)(F)F)C2(C)C)cccc1-c1ccccc1 (racemic) [Bifenthrin],insecticide detected in the solution,"0.0895 ppm aqueous solution at pH 11.0, 25° C., after 5 hours, no polymer particles",45%
same,insecticide remaining in the solution,"0.0895 ppm aqueous solution at pH 11.0, 25° C., after 15 hours, no polymer particles",12%
same,Bifenthrin remaining,after 5 hours,95%
same,Bifenthrin remaining,after 15 hours,93%
